Drawing on ChEMBL document CHEMBL4680271, “COVID-19: Drug Targets and Potential Treatments” (J Med Chem, 2020), this text covers IC50 and CC50 for 8 compounds.

The nature of series [1]: Inhibition of SARS-CoV2 3C-like protease expressed in Escherichia coli BL21-Gold (DE3) cells using Dabcyl-KTSAVLQSGFRKM-E(Edans)-NH2 as substrate by FRET-based cleavage assay. Also on record: species or system Severe acute respiratory syndrome coronavirus 2.
Series [2] in a line: Cytotoxicity against African green monkey Vero E6 cells by CCK8 assay. It is filed as cell-based, Vero C1008. Conditions: chlorocebus sabaeus.
Series [3] is described as follows: Inhibition of SARS-CoV2 3C-like protease expressed in Escherichia coli BL21 (DE3) cells using Mca-AVLQSGFR-K(Dnp)K as substrate by fluorescence method. Also on record: species or system Severe acute respiratory syndrome coronavirus 2.
Series [4] in a line: Inhibition of C-terminal 6His-tagged SARS-CoV 3C-like protease expressed in Escherichia coli BL21 (DE3) CodonPlus-RIL using 12-mer fluorogenic peptide Dabcyl-KNSTLQSGLRKE-Edans as substrate incubated for 60 mins by fluorescence method. Also on record: species or system Severe acute respiratory syndrome-related coronavirus.
Series [5] can be described thus: Inhibition of C-terminal 6His-tagged SARS-CoV papain-like protease expressed in Escherichia coli BL21 (DE3) CodonPlus-RIL using Arg-Leu-Arg-Gly-Gly-AMC as substrate by fluorescence method. Also on record: species or system Severe acute respiratory syndrome-related coronavirus.
Series [6] can be described thus: Inhibition of SARS-CoV 3C-like protease expressed in Escherichia coli BL21 using Dabcyl-KTSAVLQSGFRKME-Edans fluorogenic peptide as substrate by fluorometric assay. Also on record: species or system Severe acute respiratory syndrome-related coronavirus.
Series [7] can be described thus: Inhibition of MERS-CoV 3C-like protease expressed in Escherichia coli BL21 using Dabcyl-KTSAVLQSGFRKME-Edans fluorogenic peptide as substrate by fluorometric assay. Also on record: species or system Middle East respiratory syndrome-related coronavirus.
The nature of series [8]: Inhibition of SARS-CoV 3C-like protease expressed in African green monkey Vero cells using SAVLQSGFRK as substrate by dual luciferase reporter assay. The class given is cell-based, Severe acute respiratory syndrome-related coronavirus.

Take `CC(C)(C)CC(=O)Nc1cccc([C@@H](CC2CC2)C(=O)N[C@@H](CC2CCNC2=O)C(=O)C(=O)NCc2ccccc2)c1O` (stereo not given in full): half-maximal inhibition in series [1] (IC50) was put at 670 nM.
For the compound `NC(=O)c1ncn([C@@H]2O[C@H](CO)[C@@H](O)[C@H]2O)n1` [RIBAVIRIN], the cytotoxic concentration (CC50) in series [2] is greater than 400 µM.
Consider `Cn1sc(=O)n(Cc2ccccc2)c1=O`, for which it took 2500 nM to reach half-maximal inhibition in series [3] (IC50).
For `O=C(/C=C/CCc1ccc(O)c(O)c1)CCc1ccc(O)c(O)c1` [DEHYDROHIRSUTANONOL], the IC50 in series [4] turned out to be 36.2 µM; in series [5], 4.1 µM.
The compound `Nc1nc2c(ncn2CCC(CO)CO)c(=O)[nH]1` [PENCICLOVIR] returned a CC50 in series [2] greater than 400 µM.
In the case of `O=C[C@H](CC1CCNC1=O)NC(=O)[C@@H](Cc1ccccc1)NC(=O)/C=C/c1ccc(Cl)cc1F` (stereo not given in full), the figures for the 50% inhibitory concentration (IC50) in series [6] and in series [7] were 200 nM and 1170 nM, respectively.
As to `COc1ccc(C(=O)/C=C/c2ccc(O)cc2)c(O)c1CC(O)C(C)=O` (stereo not given), the IC50 in series [8] was 7.1 µM.
Regarding `NC(=O)c1nc(F)c[nH]c1=O`, the 50% cytotoxic concentration (CC50) in series [2] was greater than 400 µM.
